From paper PMC5000588, “A Female-Biased Odorant Receptor from Apolygus lucorum (Meyer-Dür) Tuned to Some Plant Odors” (International Journal of Molecular Sciences, 2016) come the findings set out here.

For orientation: EC50 means the concentration needed to bring the measured effect to its halfway point. The low end stands for an effect from little substance, the high end for a need for much substance.

Test [1] deals with T1, AlucOR46/Orco (Apolygus lucorum, UniProt A0A1Q1NIJ3).
T1 construct: gene OR39; full-length ORF of AlucOR46 (1185 bp, 394 residues) in pT7Ts, cRNA co-injected with AlucOrco cRNA into Xenopus oocytes; OR/Orco heteromeric channel; with Odorant receptor coreceptor
T1 sequence (A0A1Q1NIJ3 1-394): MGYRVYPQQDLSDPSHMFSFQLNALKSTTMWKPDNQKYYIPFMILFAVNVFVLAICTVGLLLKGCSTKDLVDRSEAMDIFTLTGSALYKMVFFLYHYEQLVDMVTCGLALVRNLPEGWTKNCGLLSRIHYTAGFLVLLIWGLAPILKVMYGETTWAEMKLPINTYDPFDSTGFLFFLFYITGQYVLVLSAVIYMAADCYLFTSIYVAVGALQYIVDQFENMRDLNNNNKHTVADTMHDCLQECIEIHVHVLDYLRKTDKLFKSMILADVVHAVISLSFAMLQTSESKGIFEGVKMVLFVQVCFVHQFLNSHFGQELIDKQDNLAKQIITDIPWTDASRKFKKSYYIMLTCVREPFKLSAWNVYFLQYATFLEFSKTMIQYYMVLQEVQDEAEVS
T1 sequence (V9TQK7 1-471 partner): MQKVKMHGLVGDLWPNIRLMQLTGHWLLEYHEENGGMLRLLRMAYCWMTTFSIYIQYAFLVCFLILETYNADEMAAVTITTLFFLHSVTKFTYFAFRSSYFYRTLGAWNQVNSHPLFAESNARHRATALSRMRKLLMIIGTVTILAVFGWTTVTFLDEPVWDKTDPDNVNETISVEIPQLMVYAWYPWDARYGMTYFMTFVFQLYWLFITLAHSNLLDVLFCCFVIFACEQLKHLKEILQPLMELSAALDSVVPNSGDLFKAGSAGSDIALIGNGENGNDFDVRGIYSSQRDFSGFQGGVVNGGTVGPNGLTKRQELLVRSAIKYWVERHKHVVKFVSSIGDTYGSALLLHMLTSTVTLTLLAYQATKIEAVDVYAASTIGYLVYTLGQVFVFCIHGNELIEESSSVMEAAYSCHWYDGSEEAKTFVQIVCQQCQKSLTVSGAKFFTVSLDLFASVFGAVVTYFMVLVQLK
Briefly: two-electrode voltage clamp, Xenopus oocytes, inward current at a single concentration. In kind it is cell-based. The note with it: agonist; 10^−4 M odorant; coexpressed with AlucOrco; 1× Ringer's buffer pH 7.6. (Two-electrode voltage clamp holds a large cell at a set potential and records current.)

Test [2] deals with T1, AlucOR46/Orco. The test is described as follows: two-electrode voltage clamp, Xenopus oocytes, inward current dose-response. In kind it is cell-based. From the text: two-electrode voltage clamp, Xenopus oocytes, inward current dose-response on AlucOR46/Orco

In the case of `C=C(C)[C@@H]1CC=C(C)CC1` [(S)-(−)-Limonene], at AlucOR46/Orco [1], the “inward current response at 10^-4 M” value is on record as “Only six compounds: (S)-(−)-Limonene, (R)-(+)-Limonene”.
Take `C=C(C)[C@H]1CC=C(C)CC1` [(R)-(+)-Limonene]: on AlucOR46/Orco [1], the “inward current response at 10^-4 M” value is “Only six compounds: (S)-(−)-Limonene, (R)-(+)-Limonene”.
`CCC/C=C/C=O` [(E)-2-Hexenal]: the midpoint of the response on AlucOR46/Orco [2], the EC50, lay at 37.1 µM.
On the same count and under the same terms, the value for `CC/C=C/CCO` [(E)-3-Hexenol] was 25.3 µM.
On the same count and under the same terms, the value for `CCCCCCCO` [1-Heptanol] was 13.8 µM; that for `CC1(C)[C@H]2CC=C(CO)[C@@H]1C2` [(1R)-(−)-Myrtenol] was 74.4 µM.
